Experiments:
Assay type in all cases: cell-based, Staphylococcus aureus
[1] = tested on: S. aureus (Newman strain); test: Checkerboard (FIC) analysis against S. aureus Newman; conditions: antibiotic in combination with ticlopidine; S. aureus (Newman strain)
CA-MRSA USA300 = test: Checkerboard (FIC) analysis against CA-MRSA USA300; conditions: for drug-drug interaction with cefuroxime (checkerboard secondary screen): in combination with cefuroxime
Method: Here a matrix of drug concentrations were tested in combinations at the concentrations shown (μg/mL). Greyscale indicates growth—darker is more growth, lighter is less growth. FIC index is a measure of synergy and is calculated as follows: FIC index=FIC (cefuroxime)+FIC (drug compound).
The combination of ticlopidine and cefuroxime was further tested as above against a variety of S. aureus strains as shown in Table 1 below.
FIC index=FIC (β-lactam)+FTC (ticlopidine). […]

MRSA = test: Analogues in combination with cefuroxime against MRSA (FIC index); conditions: compound in combination with cefuroxime; MRSA (Table 5)
Method: A series of analogues were synthesized (as shown in Table 5) in which the thienopyridine ring was removed.
These were tested in combination with cefuroxime against MRSA and results are shown below (Table 6).

[2] = antibiotic in combination with ticlopidine, CA-MRSA USA 300, FIC (β-lactam)+FIC (ticlopidine)

Compound | FIC index [1] | FIC index (CA-MRSA USA300; [2]) | further results
CN[C@H](CC(C)C)C(=O)N[C@H]1C(=O)N[C@@H](CC(N)=O)C(=O)N[C@H]2C(=O)N[C@H]3C(=O)N[C@H](C(=O)N[C@H](C(=O)O)c4cc(O)cc(O)c4-c4cc3ccc4O)[C@H](O)c3ccc(c(Cl)c3)Oc3cc2cc(c3O[C@@H]2O[C@H](CO)[C@@H](O)[C@H](O)[C@H]2O[C@H]2C[C@](C)(N)[C@H](O)[C@H](C)O2)Oc2ccc(cc2Cl)[C@H]1O [Vancomycin] | ≦2 | – | –
N[C@@H]1CONC1=O [D-cycloserine] | ≦2 | – | –
CC(C)(O/N=C(\C(=O)N[C@@H]1C(=O)N2C(C(=O)[O-])=C(C[n+]3ccccc3)CS[C@H]12)c1csc(N)n1)C(=O)O [Ceftazidime] | ≦1 | ≦2 | –
Clc1ccccc1CN1CCc2ccccc2C1 [Compound 3, 2-(2-Chloro-benzyl)-1,2,3,4-tetrahydro-isoquinoline] | – | – | FIC index (MRSA): ≦0.125
CCN1CCN(C(=O)N[C@@H](C(=O)N[C@@H]2C(=O)N3[C@@H]2SC(C)(C)[C@@H]3C(=O)O)c2ccccc2)C(=O)C1=O [Piperacillin] | ≦0.63 | ≦0.5 | –
O=C(O)C(c1ccccc1C(F)(F)F)N1CCc2ccccc2C1 (stereo not shown) [Compound 23] | – | – | FIC index (MRSA): ≦2
CO[C@@]1(NC(=O)Cc2cccs2)C(=O)N2C(C(=O)O)=C(COC(N)=O)CS[C@@H]21 [Cefoxitin] | ≦0.75 | ≦0.5 | –
NC(=O)c1cc[n+](CC2=C(C(=O)O)N3C(=O)[C@@H](NC(=O)[C@@H](c4ccccc4)S(=O)(=O)[O-])[C@H]3SC2)cc1 [Cefsulodin] | ≦1 | ≦2 | –
Clc1ccccc1CN1CCCc2ccccc21 [Compound 9, 1-(2-Chloro-benzyl)-1,2,3,4-tetrahydro-quinoline] | – | – | FIC index (MRSA): ≦0.187
c1cc2c(s1)CCNC2 [Compound 2, 4,5,6,7-Tetrahydro-thieno[3,2-c]pyridine] | – | – | FIC index (MRSA): ≦2
NC[C@H]1O[C@H](O[C@H]2[C@H](O)[C@@H](O[C@H]3O[C@H](CO)[C@@H](O)[C@H](N)[C@H]3O)[C@H](N)C[C@@H]2N)[C@H](N)C[C@@H]1O [Tobramycin] | ≦2 | – | –
CC1=C(C(=O)O)N2C(=O)[C@@H](NC(=O)[C@H](N)C3=CCC=CC3)[C@H]2SC1 [Cephradine] | – | ≦2 | –
CCOc1ccc2ccccc2c1C(=O)N[C@@H]1C(=O)N2[C@@H]1SC(C)(C)[C@@H]2C(=O)O [Nafcillin] | ≦1 | ≦0.5 | –
CC(=O)OCC1=C(C(=O)O)N2C(=O)[C@@H](NC(=O)Cc3cccs3)[C@H]2SC1 [Cephalothin] | – | ≦0.5 | –
Cn1nnnc1SCC1=C(C(=O)O)N2C(=O)[C@@H](NC(=O)[C@H](O)c3ccccc3)[C@H]2SC1 [Cefamandole] | ≦0.75 | ≦0.63 | –
Polymyxin | ≦0.5 | – | –
C[C@@H]1O[C@@H]1P(=O)(O)O [Fosfomycin] | ≦0.5 | – | –
O=C(O)c1cn(C2CC2)c2cc(N3CCNCC3)c(F)cc2c1=O [Ciprofloxacin] | ≦2 | – | –
CO/N=C(\C(=O)N[C@@H]1C(=O)N2C(C(=O)O)=C(COC(C)=O)CS[C@H]12)c1csc(N)n1 [Ceftoxamine] | ≦1 | – | –
Cc1onc(-c2ccccc2Cl)c1C(=O)N[C@@H]1C(=O)N2[C@@H]1SC(C)(C)[C@@H]2C(=O)O [Cloxacillin] | – | ≦0.5 | –
COc1cccc(OC)c1C(=O)N[C@@H]1C(=O)N2[C@@H]1SC(C)(C)[C@@H]2C(=O)O [Methicillin] | ≦1 | ≦0.63 | –

Compound | FIC index [1] | FIC index (CA-MRSA USA300; [2]) | further results
COc1cc(Cc2cnc(N)nc2N)cc(OC)c1OC [Trimethoprim] | ≦2 | – | –
C[C@H]1COc2c(N3CCN(C)CC3)c(F)cc3c(=O)c(C(=O)O)cn1c23 [Levofloxacin] | ≦2 | – | –
CC1=C(C(=O)O)N2C(=O)[C@@H](NC(=O)[C@H](N)c3ccccc3)[C@H]2SC1 [Cephalexin] | ≦1 | ≦0.75 | –
CC[C@H]1OC(=O)[C@H](C)[C@@H](O[C@H]2C[C@@](C)(OC)[C@@H](O)[C@H](C)O2)[C@H](C)[C@@H](O[C@@H]2O[C@H](C)C[C@H](N(C)C)[C@H]2O)[C@](C)(OC)C[C@@H](C)C(=O)[C@H](C)[C@@H](O)[C@]1(C)O [Clarithromycin] | ≦2 | – | –
N[C@@H](C(=O)N[C@@H]1C(=O)N2C(C(=O)O)=C(Cl)CS[C@H]12)c1ccccc1 [Cefaclor] | ≦1 | ≦0.5 | –
CC(=O)OCC1=C(C(=O)O)N2C(=O)[C@@H](NC(=O)CCC[C@@H](N)C(=O)O)[C@H]2SC1 [Cephalosporin C] | ≦0.75 | – | –
C[C@@H](O)[C@H]1C(=O)N2C(C(=O)O)=C(S[C@@H]3CN[C@H](C(=O)N(C)C)C3)[C@H](C)[C@H]12 [Meropenem] | – | ≦0.75 | –
CC1(C)S[C@@H]2[C@H](NC(=O)Cc3ccccc3)C(=O)N2[C@H]1C(=O)O [Penicillin G] | – | ≦0.5 | –
CO[C@@]1(NC(=O)CSCC#N)C(=O)N2C(C(=O)O)=C(CSc3nnnn3C)CS[C@@H]21 [Cefmetazole] | ≦0.75 | – | –
CC(=O)Oc1cc2c(s1)CCN(C(C(=O)C1CC1)c1ccccc1F)C2 (racemic) [Prasugrel, (RS)-5-[2-cyclopropyl-1-(2-fluorophenyl)-2-oxoethyl]-4,5,6,7-tetrahydrothieno[3,2-c]pyridin-2-yl acetate] | – | – | MIC (CA-MRSA USA300; Staphylococcus aureus, read-out: MIC thienopyridine): > 128 µg/mL; FIC thienopyridine (CA-MRSA USA300; in the presence of cefuroxime, CA-MRSA USA300 (Table 4)): 0.25; FIC index (CA-MRSA USA300; thienopyridine in combination with cefuroxime, CA-MRSA USA300 (Table 4)): ≦0.50; FIC index (CA-MRSA USA300; thienopyridine in combination with cefuroxime, CA-MRSA USA300 (Table 4), listed as prasugrel): ≤ 0.50
Cc1onc(-c2ccccc2)c1C(=O)N[C@@H]1C(=O)N2[C@@H]1SC(C)(C)[C@@H]2C(=O)O [Oxacillin] | ≦0.63 | ≦0.5 | –
CN(C)CCC(c1ccc(Cl)cc1)c1ccccn1 (stereo not shown) [chlorpheniramine] | – | – | drug-drug interaction with cefuroxime (checkerboard secondary screen) (CA-MRSA USA300): synergistic interactions
CC1=C(C(=O)O)N2C(=O)[C@@H](NC(=O)[C@H](N)c3ccc(O)cc3)[C@H]2SC1 [Cefadroxil] | – | ≦2 | –
CO/N=C(\C(=O)N[C@@H]1C(=O)N2C(C(=O)O)=C(COC(C)=O)CS[C@H]12)c1csc(N)n1 [Cefotaxime] | – | ≦0.5 | –
CO/N=C(\C(=O)N[C@@H]1C(=O)N2C(C(=O)O)=CCS[C@H]12)c1csc(N)n1 [Ceftizoxime] | – | ≦0.5 | –
CC[C@H]1OC(=O)[C@H](C)[C@@H](O[C@H]2C[C@@](C)(OC)[C@@H](O)[C@H](C)O2)[C@H](C)[C@@H](O[C@@H]2O[C@H](C)C[C@H](N(C)C)[C@H]2O)[C@](C)(O)C[C@@H](C)C(=O)[C@H](C)[C@@H](O)[C@]1(C)O [Erythromycin] | ≦2 | – | –
Tunicamycin | ≦0.75 | – | –
CCCCCCCCCC(=O)N[C@@H](Cc1c[nH]c2ccccc12)C(=O)N[C@H](CC(N)=O)C(=O)N[C@@H](CC(=O)O)C(=O)N[C@@H]1C(=O)NCC(=O)N[C@@H](CCCN)C(=O)N[C@@H](CC(=O)O)C(=O)N[C@H](C)C(=O)N[C@@H](CC(=O)O)C(=O)NCC(=O)N[C@H](CO)C(=O)N[C@@H]([C@H](C)CC(=O)O)C(=O)N[C@@H](CC(=O)c2ccccc2N)C(=O)O[C@@H]1C [Daptomycin] | ≦2 | – | –
CN1[C@@H]2CC[C@H]1C[C@@H](OC(c1ccccc1)c1ccccc1)C2 [Benztropine] | – | – | drug-drug interaction with cefuroxime (checkerboard secondary screen) (CA-MRSA USA300): synergistic interactions
CC1(C)S[C@@H]2[C@H](NC(=O)[C@H](N)c3ccccc3)C(=O)N2[C@H]1C(=O)O [Ampicillin] | ≦1 | ≦0.5 | –

Source: patent publication US20140088069A1, “NOVEL ANTIBACTERIAL COMBINATION THERAPY” (priority 2011, published 2014)
